# Reference: publication PMC3411647 (PLoS ONE, 2012)
# Key:
# H3R [1] = target: T1, H3R (Homo sapiens, UniProt Q9Y5N1); assay: ERK1/2 phosphorylation (Western blot) in HEK-293 cells stably expressing H3R; format: cell-based
# T1 construct: expressed in transfected cells
# Method: Figure 7 Phosphorylation of ERK1/2 induced by ZEL-H16 in H3R-expressing HEK-293 cells. […] Signals were quantified by densitometric image analysis and p-ERK was normalized to a loading control (ERK). […] Concentration -dependent phosphorylation signals were quantified by densitometric analysis and p-ERK levels were normalized to total ERK levels. […] C, The phosphorylation of ERK1/2 induced by ZEL-H16 could be entirely abolished by co-incubation with H3R antagonist thioperamide (***p<0.001). Data represent the mean ±SE of three independent experiments.
# HEK-293 cells stably expressing human H3R were grown in a 6-well plate and were serum starved 2 h in serum-free culture medium prior to stimulation. Cells were stimulated with the indicated H3R ligands at the designated concentrations. Incubations were stopped at the indicated times by removing the stimulation medium by aspiration. The cells were washed in ice-cold PBS and subsequently lysed in 100 µl of lysis buffer [20 mM HEPES (pH 7.5), 10 mM EDTA, 150 mM NaCl, 1% Triton X-100, and one tablet of complete protease inhibitor (Roche, Indianapolis, IN) per 50 mL] at 4°C on a rocker for 30 min. The lysates were centrifuged and separated by sodium dodecyl sulfate-polyacrylamide (12%) gel electrophoresis (SDS-PAGE) and blotted onto polyvinylidene difluoride membranes. Membranes were blocked for 1 h at room temperature in TBST (10 mmol/L Tris, 150 mmol/L NaCl, 0.1% Tween-20, pH 8.0) buffer containing 5% (v/w) skim milk. Membranes were probed overnight with primary antibodies against p-ERK1/2 (1∶1,000; Cell Signaling, Danvers, MA) in TBST containing 5% (v/w) BSA, and then probed with horseradish peroxidase-labeled secondary antibody (1∶5,000) for 1 h at room temperature in TBST containing 5% (v/w) milk powder. Immunoreactivity was detected by ECL assays. The blots were stripped and reprobed using antibodies against total ERK1/2 (1∶2,000) (Cell Signaling, Danvers, MA) as a control.
# mouse H3R = target: T2, mouse H3R (Mus musculus, UniProt P58406); assay: ERK1/2 phosphorylation in neonatal mouse cortical neuron cultures; format: cell-based
# T2 construct: endogenous in cells; host or cells: primary cortical neurons of neonatal ICR mice
# T2 sequence (P58406 whole entry): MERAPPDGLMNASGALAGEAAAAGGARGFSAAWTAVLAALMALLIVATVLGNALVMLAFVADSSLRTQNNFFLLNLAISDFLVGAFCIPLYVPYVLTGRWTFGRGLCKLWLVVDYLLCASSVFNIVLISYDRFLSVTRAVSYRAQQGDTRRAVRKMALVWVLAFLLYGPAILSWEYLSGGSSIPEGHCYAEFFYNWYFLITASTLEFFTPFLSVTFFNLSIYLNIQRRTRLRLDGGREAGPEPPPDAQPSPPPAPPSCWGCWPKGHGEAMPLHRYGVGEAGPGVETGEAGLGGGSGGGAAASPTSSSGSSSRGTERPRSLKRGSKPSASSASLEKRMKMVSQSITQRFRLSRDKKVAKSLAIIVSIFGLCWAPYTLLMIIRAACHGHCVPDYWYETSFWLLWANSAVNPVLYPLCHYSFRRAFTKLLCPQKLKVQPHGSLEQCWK
# Method: Figure 8 Phosphorylation of ERK1/2 induced by ZEL-H16 in mouse cortical neurons. A, Time-dependent phosphorylation of ERK1/2 induced by 5 µM ZEL-H16 in neonatal mouse cortical neuron cultures. B, The phosphorylation of ERK1/2 induced by 50 µM ZEL-H16 for 20 min was mostly abolished by 100 ng/mL PTX or 10 µM thioperamide. Signals were quantified by densitometric image analysis and p-ERK was normalized to a loading control (ERK). The signal at each point is expressed as the percentage of the maximal p-ERK signal induced by ZEL-H16. Data represent the mean ±SE of three independent experiments.
# Neuronal cortical cultures were prepared from neonatal ICR mice. Cerebral cortices were dissociated in sterile Dulbecco’s phosphate-buffered saline (D-PBS; Sigma-Aldrich, St. Louis, MO), and the neurons were isolated in the same medium containing 0.5% trypsin at 37°C for 10 min. After centrifugation, dissociated neurons were re-suspended in neurobasal medium (NBM; Gibco, Carlsbad, CA) supplemented with 2% B-27 and 0.5 mmol/L-glutamine (Gibco, Carlsbad, CA) and then plated on 48-well plates at a density of approximately 1.3×10^6 per well. After 7 days of culture, the neurons were serum starved for approximately 3 h prior to drug treatment. […]
# H3R [2] = target: T1, H3R; assay: H3R internalization, cell-surface ELISA in HEK-293 cells stably transfected with Flag-H3R; format: cell-based; conditions: 100 µM, 45 min at 37°C
# Method: ELISA data are expressed as the percentage of receptors detected on the surface of agonist-untreated cells expressing H3R. Error bars represent the SEM for four replicates.
# The cell surface expression of H3R was quantitatively assessed by ELISA and performed as described previously. Briefly, HEK-293 cells stably transfected with the pCMV-H3R construct were seeded in 48-well dishes coated with poly-L-lysine. […] Medium was aspirated and the cells were washed once with Tris-buffered saline (TBS). […] Cells were then incubated for 1 h with an alkaline phosphatase-conjugated monoclonal antibody directed against the Flag epitope and diluted 1∶1,000. Cells were washed 3 times, and antibody binding was visualized by adding 0.25 mL of an alkaline phosphatase substrate (Bio-Rad). Development was stopped by adding 0.1 mL of the substrate to a 96-well microtiter plate containing 0.1 mL of 0.4 M NaOH.
# H3R-EGFP = target: T3, H3R-EGFP (Homo sapiens, UniProt Q9Y5N1); assay: Recycling of internalized H3R-EGFP to the cell surface, confocal microscopy; format: cell-based; conditions: 20 µM ZEL-H16 or 500 µM histamine for 30 min, cycloheximide 100 µg/ml
# T3 construct: expressed in transfected cells
# T3 sequence (Q9Y5N1 whole entry): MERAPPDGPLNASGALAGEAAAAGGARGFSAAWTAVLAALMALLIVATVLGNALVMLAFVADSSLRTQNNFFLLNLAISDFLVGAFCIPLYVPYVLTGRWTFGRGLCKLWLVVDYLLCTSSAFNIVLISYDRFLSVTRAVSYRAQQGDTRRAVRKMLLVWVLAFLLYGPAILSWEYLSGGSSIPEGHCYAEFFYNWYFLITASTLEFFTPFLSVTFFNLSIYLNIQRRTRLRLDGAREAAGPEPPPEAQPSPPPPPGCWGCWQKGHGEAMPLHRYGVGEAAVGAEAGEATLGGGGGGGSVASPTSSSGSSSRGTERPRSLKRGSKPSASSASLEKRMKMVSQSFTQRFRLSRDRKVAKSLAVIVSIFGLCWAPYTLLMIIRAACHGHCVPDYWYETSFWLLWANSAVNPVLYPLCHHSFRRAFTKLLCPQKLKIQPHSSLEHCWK
# Method: Figure 6 Localization of internalized H3R-EGFP stably expressed in HEK-293 cells and recycling of internalized H3R to the cell surface. […] All pictures shown are representative of at least three independent experiments.
# HEK-293 cells stably expressing H3R-EGFP were seeded in covered glass-bottom 6-well plates. […] After fixing the cells with 4% paraformaldehyde for 10 min, cells were mounted in mounting reagent (DTT/PBS/glycerol). Confocal images were taken on a Zeiss LSM 510 microscope with an attached Axiovert 200 microscope and LSM5 computer system. Images were collected using QED camera software and processed with Adobe Photoshop.
# H3R [3] = target: T4, H3R (Cavia porcellus, UniProt Q9JI35); assay: Guinea-pig ileum bioassay, inhibition of electrically induced twitch
# T4 construct: from tissue; host or cells: guinea-pig ileum segments
# T4 sequence (Q9JI35 whole entry): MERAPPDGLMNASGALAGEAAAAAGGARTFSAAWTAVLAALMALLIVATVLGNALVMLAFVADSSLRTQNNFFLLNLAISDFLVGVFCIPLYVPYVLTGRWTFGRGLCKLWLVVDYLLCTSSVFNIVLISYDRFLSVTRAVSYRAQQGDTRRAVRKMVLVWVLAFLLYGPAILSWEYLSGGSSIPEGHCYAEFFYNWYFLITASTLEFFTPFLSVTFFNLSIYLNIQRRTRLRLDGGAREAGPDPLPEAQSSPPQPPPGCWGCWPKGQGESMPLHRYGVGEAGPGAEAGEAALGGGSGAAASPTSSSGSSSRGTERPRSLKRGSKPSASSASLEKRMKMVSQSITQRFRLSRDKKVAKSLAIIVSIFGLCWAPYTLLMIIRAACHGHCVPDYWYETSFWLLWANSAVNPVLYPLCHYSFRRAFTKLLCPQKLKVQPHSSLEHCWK
# Method: Each point is the mean ± s.e.m. of three to six separate experiments.
# The procedure used was as described previously. Adult male guinea pigs (300–500 g) were killed by cervical dislocation. The ileum was removed at a point 20 cm from the caecum and flushed with and placed in modified K–H buffer of following composition: 118 mM NaCl, 5.9 mM KCl, 1.2 mM CaCl2, 1.2 mM MgSO4, 1 mM Na2HPO4, 25 mM NaHCO3 and 10 mM D-glucose. Ileum segments (2.5–3 cm) were suspended in 20 ml organ baths containing K–H buffer maintained at 37°C and gassed with 95% O2/5% CO2. Contractile activity under stimulation (rectangular pulses of 15 V, 0.5 ms, and 0.1 Hz) was recorded using isometric transducers (Grass FTO3). […] Mepyramine ([…]) and famotidine ([…]) (Sigma-Aldrich, St. Louis, MO) were added to the K–H buffer to block postsynaptic H1 and presynaptic H2 receptors, respectively.
# [4] = target: T5, human histamine H3 receptor (Homo sapiens, UniProt Q9Y5N1); assay: Competitive/saturation binding with [3H]N-α-methylhistamine, H3R/HEK-293 cell membranes
# T5 construct: expressed in transfected cells
# T5 sequence (Q9Y5N1 whole entry): as the sequence (Q9Y5N1 whole entry) above
# Method: (§1) Figure 4 Competition binding experiments with [^3H]-N-α-methylhistamine. […] The presented data are the means ±SE of values from a single experiment performed in duplicate and are representative of three to six separate experiments.
# (§2) HEK-293 cells stably expressing H3R were harvested and resuspended in ice-cold 50 mM Tris-HCl (pH 7.4) containing a complete protease inhibitor cocktail tablet and mixed by inverting. The cell pellet was homogenized with a Polytron PT 1200 set at 4000 rpm and centrifuged at 1,000 g for 5 min. The supernatant was then centrifuged twice at 50,000 g for 30 min at 4°C. Finally, the resulting pellet was gently suspended in 50 mM Tris-HCl (pH 7.4) buffer and the membrane concentration was determined using Bio-Rad protein assays.
# (§3) The membranes (50 µg of protein) were incubated with [^3H] N-α-methylhistamine at various concentrations (from 0.03 nM to 50 nM) for saturation binding assays. For competitive binding assays, the membranes (50 µg of protein) were incubated with 10 nM [^3H] N-α-methylhistamine for recombinant hH3R or 2nM [^3H] N-α-methylhistamine for rat brain H3R in the presence of various compound concentrations in the buffer (50 mM Tris–HCl, pH 7.4). […] Following three washes, the membrane-bound radioactivity was measured on a Topcount (PerkinElmer) at 20°C. […] IC50 values were converted to Ki values using the Cheng-Prusoff equation. Each experiment was performed in duplicate and repeated three to six times. All data were analyzed by nonline arregression using GraphPad Prism version 4.0 software.
# rat brain H3R = target: T6, rat brain H3R (Rattus norvegicus, UniProt Q9QYN8); assay: Competitive/saturation binding with [3H]N-α-methylhistamine, rat cerebral cortex membranes; conditions: saturation binding, rat cerebral cortex
# T6 construct: from tissue; host or cells: rat cerebral cortex membranes
# T6 sequence (Q9QYN8 whole entry): as the sequence (P58406 whole entry) above, with A15T, T286A, G290A, H387R, V389I counted along it
# Method: as §1, §3
# histamine H4 receptor = conditions: cited from earlier work
# hH3R = target: T7, hH3R (Homo sapiens, UniProt Q9Y5N1); assay: Saturation radioligand binding (Scatchard) of [3H]N-α-methylhistamine (0.03-50 nM) to membranes of HEK-293 cells expressing hH3R, 50 mM Tris-HCl pH 7.4, room temperature.
# T7 construct: gene HRH3; recombinant, cDNA from human thalamus RNA (AF140538), stably expressed in HEK-293 cells; vectors pCMV-Flag and pEGFP-N1
# T7 sequence (Q9Y5N1 whole entry): as the sequence (Q9Y5N1 whole entry) above
# Method: as §2
# The membranes (50 µg of protein) were incubated with [^3H] N-α-methylhistamine at various concentrations (from 0.03 nM to 50 nM) for saturation binding assays. For competitive binding assays, the membranes (50 µg of protein) were incubated with 10 nM [^3H] N-α-methylhistamine for recombinant hH3R or 2nM [^3H] N-α-methylhistamine for rat brain H3R in the presence of various compound concentrations in the buffer (50 mM Tris–HCl, pH 7.4). The reaction mixtures were incubated for 90–120 min at room temperature to achieve binding equilibrium. Following three washes, the membrane-bound radioactivity was measured on a Topcount (PerkinElmer) at 20°C. […] IC50 values were converted to Ki values using the Cheng-Prusoff equation. […] All data were analyzed by nonline arregression using GraphPad Prism version 4.0 software.
# T1 sequence (Q9Y5N1 whole entry): as above
smiles,measurement,setting,value
S=C(NC1CCCCC1)N1CCC(c2cnc[nH]2)CC1 [thioperamide],effect on ERK1/2 phosphorylation induced by 50 µM ZEL-H16,H3R [1],completely abolished
same,effect on ERK phosphorylation induced by 50 µM ZEL-H16 at 20 min,mouse H3R,abolish most of the stimulatory effects
"NCCc1c[nH]cn1 [histamine, reference compound]",loss in the expression of the receptors on the cell surface (internalization),H3R [2],18–20%
same,time for internalized H3R to recycle to the cell surface after agonist removal,H3R-EGFP,≤ 1 h
same,efficacy of inhibition of the contractions of the guinea pig ileum,"H3R [3]; electrically induced twitch, mepyramine and famotidine present",54.52±0.99%
same,EC50,"H3R [3]; inhibition of electrically induced twitch, read-out: pD 2 (converted)",95.5 nM
"N=C(N)SCCc1c[nH]cn1 [imetit, S-[2-(4-imidazolyl)ethyl]isothiourea, reference compound]",loss in the expression of the receptors on the cell surface (internalization),H3R [2],18–20%
same,Ki,[4],0.9 ± 0.06 nM
"CNCCc1cnc[nH]1 [[^3H]N-α-methylhistamine, reference compound]",Kd,rat brain H3R,0.83 nM
"c1nc(CC2CCNCC2)c[nH]1 [immepip, 4-(1H-imidazol-4-ylmethyl)piperidine]",pKi,histamine H4 receptor,7.66
"CNCCc1c[nH]cn1 [[^3H]N-α-methylhistamine, [3H]N-alpha-methylhistamine]",Kd,hH3R,0.71 nM
